Experimental data from US10933134B2, “Combination therapies for treatment of cancer” (priority 2017, dated 2021).
Non-standard residues stand in square brackets, D forms with d. Residues, ends and D or L forms follow the SMILES beside them. *: point of attachment. dPhe(4-NHCONH2) = NC(=O)Nc1ccc(C[C@@H](N)C(=O)O)cc1; Dihydroorotyl(S) = O=C1C[C@@H](C(=O)*)NC(=O)N1; dPhe(4-Cl) = N[C@H](Cc1ccc(Cl)cc1)C(=O)O; Phe(4-NH2) = Nc1ccc(C[C@H](N)C(=O)O)cc1; d2Nal = N[C@H](Cc1ccc2ccccc2c1)C(=O)O; Lys(iPr) = CC(C)NCCCC[C@H](N)C(=O)O; d3Pal = N[C@H](Cc1cccnc1)C(=O)O

Columns and labels:
[1] = test system: total PSA (tPSA); assay: Serum total PSA in mice bearing LNCaP-AR tumors; format: in vivo; conditions: one, three, or seven days post-WST11 VTP (FIG. 5A)
Method: This assay measures free PSA and complexed PSA in an equimolar fashion [Ulmert et al., 2012; Mitrunen et al., 1995], and the cross-reactivity of PSA-ACT for free PSA is less than 0.2% [Pettersson et al., 1995]. The lower limits of detection are 0.1 ng/mL for both total PSA and free PSA. For detection, the 1235 automatic immunoassay system from Perkin-Elmer Life Sciences (Waltham, Mass.) was used.
(vii) Statistical analysis: Two-way ANOVA test using GraphPad Prism (GraphPad Software, La Jolla, Calif.) was used for therapeutic efficacy in affecting tumor growth, and One-way ANOVA for PSA and a Mann-Whitney test for CD31, Ki67 or TUNEL staining quantification. Differences with p values<0.05 were considered statistically significant.
To verify that AR activity was inhibited by the treatments, the levels of total PSA (tPSA) in serum of mice bearing LNCaP-AR tumors were measured. Serum tPSA values were determined in separate cohorts of mice at one, three, or seven days post-WST11 VTP (four, six or ten days post-degarelix).

[2] = test system: LNCaP-AR tumors; assay: Histology and immunohistochemistry of treated tumors (TUNEL, AR, Ki67); format: in vivo, mice; conditions: for TUNEL staining (cell death): tumors on days three and seven post-VTP (FIG. 5B)
Method: (§1) (v) Histology and immunohistochemistry: All tumor specimens were fixed in 10% buffered formalin (Fisher Scientific, Pittsburgh, Pa.), processed routinely, embedded in paraffin, sectioned at 5-micron thickness, and stained with hematoxylin-eosin (H&E). Immunohistochemistry (IHC) of tumors was performed on 5 micron formalin-fixed paraffin embedded (FFPE) section following heat induced epitope retrieval (HIER) in a buffer at pH 9.0. AR staining with anti-AR antibody (at 0.66 μg/ml, Abcam, Cambridge, Mass.) and TUNEL staining for cell death with terminal deoxynucleotidyl transferase dUTP nick-end labeling (Roche Diagnostics, Indianapolis, Ind.) was performed using Discovery XT processor (Ventana Medical Systems, Inc., Tucson, Ariz.) at the Molecular Cytology core facility. IHC staining for CD31 and Ki67 markers was performed on FFPE sections at the Laboratory of Comparative Pathology on a Leica Bond RX automated stainer (Leica Biosystems, Buffalo Grove, Ill.). […] For quantification of CD31, Ki67 and TUNEL staining, whole slide digital images were generated on a scanner (Pannoramic 250 Flash III, 3DHistech, 20×/0.8NA objective, Budapest, Hungary) at a resolution of 0.2431 μm per pixel. Staining quantification was performed with QuPath 0.1.2 software (Centre for Cancer Research & Cell Biology, Queen's University Belfast, UK). […] For CD31 and TUNEL, the positive area, defined as the ratio of DAB stained pixels to total ROI area, was measured using the positive pixel count algorithm. For Ki67, the ratio (percentage) of cells with positive nuclear staining to total cell number was measured with the positive cell detection algorithm. […]
(§2) (vii) Statistical analysis: Two-way ANOVA test using GraphPad Prism (GraphPad Software, La Jolla, Calif.) was used for therapeutic efficacy in affecting tumor growth, and One-way ANOVA for PSA and a Mann-Whitney test for CD31, Ki67 or TUNEL staining quantification. […]

[3] = test system: LNCaP-AR xenograft tumors; assay: GSEA transcriptome analysis of LNCaP-AR xenografts following VTP; format: in vivo, SCID mice
Method: (vi) GSEA for transcriptome analysis of LNCaP-AR xenografts following VTP treatment: LNCaP/AR xenografts were established in intact SCID mice by injecting 2 million cells as described previously [Chen et al., 2004] and, once established, were treated with VTP at 9 mg/kg WST11 followed by 753 nm illumination at 100 mW/cm^2 laser fluence. Tumors were collected at 3, 6, or 24 hours, 1 week and 8.5 weeks post VTP and RNA was isolated following the standard protocol using TRIzol (Fisher Scientific). Expression profiling was performed using Illumina HT-12 Expression BeadChip array and the data was analyzed using Partek Genomics Suite (Partek Inc., St. Louis, Mo.). The microarray data then underwent secondary analysis by GSEA [Subramanian et al., 2005] using gene sets from the Hallmark and C2, Canonical Pathways collections (Molecular Signature Databases v6.0 (MSigDB); Broad Institute at http site //software.broadinstitute.org/gsea/msigdb.GSEA| MSigDB. Accessed 19 Jun. 2017. Microarray data has been deposited in the National Center for Biotechnology Information Gene Expression Omnibus (GEO) (GSE109681). To identify potential druggable pathways active in PCa that could be exploited for combination therapy with VTP, we analyzed the transcriptome of LNCaP-AR xenograft tumors following acute response to VTP exposure. […]

[4] = test system: low-risk, localized PCa; conditions: cited from earlier work
[5] = test system: CD31; assay: CD31 IHC staining of tumors (vessel quantification); format: in vivo, mice
Method: as §1, with “9.0.” for “9.0. AR staining with anti-AR antibody (at 0.66 μg/ml, Abcam, Cambridge, Mass.) and TUNEL staining for cell death with terminal deoxynucleotidyl transferase dUTP nick-end labeling (Roche Diagnostics, Indianapolis, Ind.) was performed using Discovery XT processor (Ventana Medical Systems, Inc., Tucson, Ariz.) at the Molecular Cytology core facility. IHC staining for CD31 and Ki67 markers was performed on FFPE sections at the Laboratory of Comparative Pathology on a Leica Bond RX automated stainer (Leica Biosystems, Buffalo Grove, Ill.).”
as §2

## CCC1c2cc3[n-]c(c(CC(=O)OC)c4nc(cc5[n-]c(cc(n2)C1C)c(C(C)=O)c5C)C(C)C4CCC(=O)[O-])c(C(=O)NCCS(=O)(=O)[O-])c3C.[K+].[K+].[Pd+2] (centres unmarked) [WST11/VTP, Palladium 3^1-oxo-15-methoxycarbonylmethyl-rhodobacteriochlorin 13^1-(2-sulfoethyl) amide dipotassium salt]
[1]
  fold changes of serum tPSA: declined
[2]
  TUNEL staining (cell death): partial cell death characterized by large foci of TUNEL staining
[3]; three to six hours post-VTP treatment
  gene sets related to hypoxia, HIF1A, and VEGFR pathways (GSEA): statistically significant enrichments
[3]; three to six hours post-VTP, vs control mice
  AR signaling gene sets (GSEA): up-regulated
[4]; 6 months after prostate hemiablation, low-risk localized PCa
  patients negative for cancer in follow up biopsies: 80.6%
[4]; at 24 months, 95% CI 0.24-0.46, p<0.0001
  HR of disease progression versus active surveillance: 0.34
[4]; at 24 months, active surveillance 58%
  disease progression: 28%
[4]; median follow-up of 68 months
  patients free of clinically significant cancer in the treated lobes: 82%
  treated patients who avoided a need for subsequent radical therapy: 76%

## CC(=O)N[C@H](Cc1ccc2ccccc2c1)C(=O)N[C@H](Cc1ccc(Cl)cc1)C(=O)N[C@H](Cc1cccnc1)C(=O)N[C@@H](CO)C(=O)N[C@@H](Cc1ccc(NC(=O)[C@@H]2CC(=O)NC(=O)N2)cc1)C(=O)N[C@H](Cc1ccc(NC(N)=O)cc1)C(=O)N[C@@H](CC(C)C)C(=O)N[C@@H](CCCCNC(C)C)C(=O)N1CCC[C@H]1C(=O)N[C@H](C)C(N)=O [degarelix] (Ac-[d2Nal][dPhe(4-Cl)][d3Pal]S[Phe(4-NH2)](Dihydroorotyl(S))[dPhe(4-NHCONH2)]L[Lys(iPr)]P[dA]-NH2)
[1]
  fold changes of serum tPSA: declined
[2]; day 7 post-VTP, p<0.05 vs controls (FIG. 5C)
  Ki67 signal (tumor proliferation): reduced Ki67 signal compared to controls
[2]
  TUNEL staining (cell death): little TUNEL staining
[5]; FIG. 6A, versus control group
  number of vessels in tumors by CD31 image analysis: appear to have fewer vessels
[5]; degarelix-treated n=11 vs control n=12, p<0.05 (FIG. 6B)
  decrease in CD31 staining area compared to controls: 38%
